Test results: article PMC11106742, “Computational Design of Cyclic Peptide Inhibitors of a Bacterial Membrane Lipoprotein Peptidase” (ACS Chemical Biology, 2024)
≈ marks a conversion by molar mass, not a printed value. Bridge positions count the residues as written; N and C are the ends. Square brackets hold non-standard residues; d marks the D form. Peptide text beside a SMILES is read from it. * marks the point of attachment. aIle = CC[C@@H](C)[C@H](N)C(=O)O; NMeL = CN[C@@H](CC(C)C)C(=O)O; dOrn = NCCC[C@@H](N)C(=O)O; dDab = NCC[C@@H](N)C(=O)O; Heptanoyl = CCCCCCC(=O)*; Octanoyl = CCCCCCCC(=O)*; Orn = NCCC[C@H](N)C(=O)O; Dab = NCC[C@H](N)C(=O)O; Hexanoyl = CCCCCC(=O)*; Pentanoyl = CCCCC(=O)*; Butyryl = CCCC(=O)*

How the values were obtained:
PaLspA = target: T1, PaLspA (Pseudomonas aeruginosa, UniProt Q9HVM5); assay: Enzyme inhibition assay of rationally designed analogues with PaLspA; type: biochemical; settings: peptide incubated with PaLspA
T1 construct: made in house
T1 sequence (Q9HVM5 1-169): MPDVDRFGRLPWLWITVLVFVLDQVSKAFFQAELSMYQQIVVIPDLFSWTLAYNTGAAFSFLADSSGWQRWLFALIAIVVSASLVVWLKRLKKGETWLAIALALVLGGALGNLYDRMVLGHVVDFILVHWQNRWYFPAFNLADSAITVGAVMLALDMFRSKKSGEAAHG
Description: Additionally, C3 – C5 (peptides S5 – S7) and C7-Gbm(NLys) (peptide S9) amide analogues were submitted for enzyme inhibition assays to determine if these cyclic amide isosteres could still inhibit the target enzyme, LspA. Each peptide was incubated with PaLspA and the observed reduction in enzyme activity reported. […]
found for peptides S5 and S9 (C3 and C7-Gbm(NLys). […]
Four linear globomycin analogues were synthesized to determine the necessity of the cyclic core.
The pentapeptide core of NMeLeu-Ile-Ser-Thr-Gly-OH was synthesized as both the natural allo-version and the cheaper non-allo version in which native residues allo-L-isoleucine and allo-L-threonine were replaced by their cheaper non-allo derivatives. Each linear pentapeptide was synthesized in both its acylated, octyl-derivative and non-acylated form and submitted for analysis of its PaLspA inhibitory activity. No PaLspA inhibition was observed, confirming the importance of globomycin’s cyclic core for antimicrobial activity.

E. coli = type: cell-based
From the text: Initially, a library of six lipid amide analogues was synthesized via cyclization between the side-chain epsilon -NH2 of an N-terminal L-lysine residue and the C-terminus of an L-serine residue.
Each analogue was acylated with a simple linear lipid, ranging from C3 to C8 in length (Figure S1). To further probe the potential of the amide isostere, five additional analogues were synthesized in which the D- or L-stereoisomer of cationic amino acids diaminobutyric acid (Dab), ornithine (Orn), or Lys were used as the N-terminal cyclization partner. Each analogue was acylated with an octanoyl tail and the subsequent effects of ring size and/or stereochemistry, as well as lipid length, determined by assessing antimicrobial activity against E. coli. Peptides were also screened against S. aureus.
Unfortunately, each analogue was unable to […]

Row | Compound | MIC (E. coli) | reduction in PaLspA enzyme activity (in words) (PaLspA) | antimicrobial activity (in words) (E. coli; against Gram-negative bacteria)
1 | CCCC(=O)N[C@H]1CCCCNC(=O)[C@H](CO)NC(=O)[C@H](CO)NC(=O)[C@H]([C@H](C)CC)NC(=O)[C@H](CC(C)C)N(C)C1=O [S6, C4-Globomycin(N-Lys)] (Butyryl-K[NMeL][aIle]SS; lactam 1-C) | > 200 µg/mL | no reduction in activity | 
2 | CCCCC(=O)N[C@H]1CCCCNC(=O)[C@H](CO)NC(=O)[C@H](CO)NC(=O)[C@H]([C@H](C)CC)NC(=O)[C@H](CC(C)C)N(C)C1=O [S7, C5-Globomycin(N-Lys)] (Pentanoyl-K[NMeL][aIle]SS; lactam 1-C) | > 200 µg/mL | no reduction in activity | 
3 | CCCCCC(=O)N[C@H]1CCCCNC(=O)[C@H](CO)NC(=O)[C@H](CO)NC(=O)[C@H]([C@H](C)CC)NC(=O)[C@H](CC(C)C)N(C)C1=O [S8, C6-Globomycin(N-Lys)] (Hexanoyl-K[NMeL][aIle]SS; lactam 1-C) | > 200 µg/mL |  | 
4 | CCCCCCC(=O)N[C@H]1CCCCNC(=O)[C@H](CO)NC(=O)[C@H](CO)NC(=O)[C@H]([C@H](C)CC)NC(=O)[C@H](CC(C)C)N(C)C1=O [S9, C7-Globomycin(N-Lys)] (Heptanoyl-K[NMeL][aIle]SS; lactam 1-C) | 100 µg/mL (≈ 153 µM) | moderate decrease in enzyme activity | 
5 | CCCCCCCC(=O)N[C@H]1CCCCNC(=O)[C@H](CO)NC(=O)[C@H](CO)NC(=O)[C@H]([C@H](C)CC)NC(=O)[C@H](CC(C)C)N(C)C1=O [S10, C8-Globomycin(N-Lys)] (Octanoyl-K[NMeL][aIle]SS; lactam 1-C) | > 200 µg/mL |  | 
6 | CCCCCCCC(=O)N[C@H]1CCCNC(=O)[C@H](CO)NC(=O)[C@H](CO)NC(=O)[C@H]([C@H](C)CC)NC(=O)[C@H](CC(C)C)N(C)C1=O [S11, C8-Globomycin(N-Orn)] (Octanoyl-[Orn][NMeL][aIle]SS; lactam 1-C) | > 200 µg/mL |  | 
7 | CCCCCCCC(=O)N[C@H]1CC=CCNC(=O)[C@H](CO)NC(=O)[C@H](CO)NC(=O)[C@H]([C@H](C)CC)NC(=O)[C@H](CC(C)C)N(C)C1=O [S13, C8-Globomycin(RCM)] | > 200 µg/mL |  | void of antimicrobial activity

More lines, main results first:

Row | MIC (E. coli) | Compound | reduction in PaLspA enzyme activity (in words) (PaLspA) | antimicrobial activity (in words) (E. coli; against Gram-negative bacteria)
8 | > 200 µg/mL | CCCCCCCC(=O)N[C@H]1CCNC(=O)[C@H](CO)NC(=O)[C@H](CO)NC(=O)[C@H]([C@H](C)CC)NC(=O)[C@H](CC(C)C)N(C)C1=O [S12, C8-Globomycin(N-Dab)] (Octanoyl-[Dab][NMeL][aIle]SS; lactam 1-C) |  | 
9 | > 200 µg/mL | CCCCCCCC(=O)N[C@@H]1CCCCNC(=O)[C@H](CO)NC(=O)[C@H](CO)NC(=O)[C@H]([C@H](C)CC)NC(=O)[C@H](CC(C)C)N(C)C1=O [S14, C8-Globomycin(N-D-Lys)] (Octanoyl-[dK][NMeL][aIle]SS; lactam 1-C) |  | 
10 | > 200 µg/mL | CCCCCCCC(=O)N[C@@H]1CCCNC(=O)[C@H](CO)NC(=O)[C@H](CO)NC(=O)[C@H]([C@H](C)CC)NC(=O)[C@H](CC(C)C)N(C)C1=O [S15, C8-Globomycin(N-D-Orn)] (Octanoyl-[dOrn][NMeL][aIle]SS; lactam 1-C) |  | 
11 | > 200 µg/mL | CCCCCCCC(=O)N[C@@H]1CCNC(=O)[C@H](CO)NC(=O)[C@H](CO)NC(=O)[C@H]([C@H](C)CC)NC(=O)[C@H](CC(C)C)N(C)C1=O [S16, C8-Globomycin(N-D-Dab)] (Octanoyl-[dDab][NMeL][aIle]SS; lactam 1-C) |  | 
